Results reported in ChEMBL document CHEMBL3608305, “Synergistic activation of quorum sensing in Vibrio harveyi” (Bioorg Med Chem Lett, 2015).
pEC50: −log10 of the molar value. Active and inactive are the calls of the source. No cut-off for these calls is given here.

How the values were obtained:
[1] = molecular target: Autoinducer 2-binding periplasmic protein LuxP (Vibrio harveyi) (UniProt P54300); assay: Binding affinity to LuxP in Vibrio harveyi BB120 assessed as activation of quorum sensing system after 6 hrs by bioluminescence assay; conditions: Vibrio campbellii ATCC BAA-1116
[2] = molecular target: Autoinducer 2-binding periplasmic protein LuxP (Vibrio harveyi) (UniProt P54300); assay: Binding affinity to LuxP in Vibrio harveyi MM32 assessed as activation of quorum sensing system at 1.5 to 100 uM after 5 hrs by bioluminescence assay in absence of exogenous synthetic DPD
[3] = molecular target: Autoinducer 2-binding periplasmic protein LuxP (Vibrio harveyi) (UniProt P54300); assay: (§1) Binding affinity to LuxP in Vibrio harveyi MM32 assessed as activation of quorum sensing system after 5 hrs by bioluminescence assay in presence of exogenous synthetic DPD
[4] = molecular target: Autoinducer 2-binding periplasmic protein LuxP (Vibrio harveyi, UniProt P54300); assay: as §1
Vibrio harveyi = assay: Toxicity in Vibrio harveyi MM32 at >5 uM; format: organism-based; conditions: in vivo

Autoinducer 2-binding periplasmic protein LuxP (Vibrio harveyi), sequence (P54300 whole entry): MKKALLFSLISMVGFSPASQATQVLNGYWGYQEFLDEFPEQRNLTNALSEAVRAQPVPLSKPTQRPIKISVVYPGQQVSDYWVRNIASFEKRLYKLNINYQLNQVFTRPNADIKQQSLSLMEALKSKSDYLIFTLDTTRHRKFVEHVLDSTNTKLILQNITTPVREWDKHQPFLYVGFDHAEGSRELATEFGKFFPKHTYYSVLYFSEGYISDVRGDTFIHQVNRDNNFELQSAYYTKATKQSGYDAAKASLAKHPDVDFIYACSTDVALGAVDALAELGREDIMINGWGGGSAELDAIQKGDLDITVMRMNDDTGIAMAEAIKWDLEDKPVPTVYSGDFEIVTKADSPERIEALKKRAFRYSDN
Autoinducer 2-binding periplasmic protein LuxP, sequence (P54300 whole entry): as above

In the case of O=C(Cc1ccc2ccccc2c1)C(=O)[C@@H](O)CO, the Activity [1] was “Dose-dependent effect”, the Activity [2] was “inactive” and the Activity [3] was “Dose-dependent effect”. The pEC50 [4] was 4.70 and the Activity (Vibrio harveyi) was “Toxic”.
